The subject of series [1] is PAF-induced platelet aggregation (platelet-rich plasma). Put plainly: PAF antagonism, in vitro platelet aggregation assay. In kind it is cell-based. Conditions: human PRP; for inhibition at 5 µM: dose 5 micromoles; for IC50: dose giving 50 % PAF antagonism, PAF 1-5×10^-8 M; for inhibition at 10 µM: dose 10 micromoles. On the procedure:
Blood was centrifuged at 110×g for 15 min. and the supernatant PRP carefully transferred into a polypropylene tube. Platelet-poor-plasma (PPP) was prepared by centrifuging PRP at 12,000×g for 2 min. in a Beckman Microfuge B. PRP was used within 3 hours of drawing the blood.
Platelet Aggregation Assay: When an aggregating agent such as PAF is added to PRP, platelets aggregate. An aggregometer quantifies this aggregation by measuring light (infra-red) transmission through PRP and comparing to PPP. The aggregation assays were performed using a dual-channel aggregometer (Model 440, Chrono-Log Corp., Hayertown, Pa.). PRP (0.45 ml) in aggregometer curettes was continually stirred (37° C.). Solutions of test compounds or vehicle were added to the PRP, and after incubation for 2 min., 10-15 μl aliquots of PAF solution were added so as to achieve a final concentration of 1-5×10^-8 M. Incubations were continued until the increase in light transmission reached a maximum (usually about 2 min). Values for inhibition were calculated by comparing maximal aggregation obtained in the absence and the presence of the compound. For each experiment, a standard PAF antagonist, such as alprazolam, was used as a positive internal control. […] The test results are shown below in Tables Ia, Ib and Ic.

Series [2] concerns histamine-induced lethality. Put plainly: Antihistamine activity: prevention of histamine-induced lethality in guinea pigs. In kind it is in vivo. Conditions: Cavia porcellus, guinea pig; for responders at 1 mg/kg / responders at 5 mg/kg: 0.5 h, 1 hour before histamine 1.1 mg/kg i.v., read-out: Antihistaminic Activity, % Survival; for responders at 1 mg/kg: oral dose 1 mg/kg PO; for responders at 5 mg/kg: oral dose 5 mg/kg PO. On the procedure: C. ANTIHISTAMINE ACTIVITY ASSAY
Prevention of Histamine-Induced Lethality in Guinea Pigs. Some of compounds shown below in Table I also were evaluated for antihistamine activity by their ability to protect female albino guinea pigs (250-350 g) against death induced by the intravenous injection of histamine dihydrochloride at 1.1 mg/kg, which is approximately twice the LD99. Doses of the antagonists were administered orally to separate groups of fasted animals 1 hour prior to the challenge with histamine and protection from death recorded for 30 minutes after histamine. ED50 values were determined for each drug by probit analysis.

Series [3] can be described thus: CNS activity: antagonism of acetic acid writhing. Conditions: mouse, in vivo; mice, oral, 15 minutes before acetic acid i.p. On the procedure: E. Antagonism of Acetic Acid Writhing. The acetic acid writhing test is a second test useful for determining CNS activity, and is essentially that described by HENDERSHOT and FORSAITH, J. Pharmac. […] Mice were injected with 0.6% aqueous acetic acid at 10 mg/kg i.p. 15 minutes after oral administration of the test drug. The number of writhes for each animal was counted during a 10 minute period starting 3 minutes after acetic acid treatment. A writhe was defined as a sequence of arching of the back, pelvic rotation and hind limb extension.

Series [4] is described as follows: CNS activity: antagonism of electro-convulsive shock (ECS). Conditions: mouse, in vivo; mice, oral, one hour before ECS; read-out: ECS test ED50. On the procedure:
F. Antagonism of Electro-Convulsive Shock (ECS). The ECS test is a third test useful for determining CNS activity. […] One hour after oral administration of the test drug or vehicle, mice were administered a 13 mA, 60 cycle a.c. electroconvulsant shock (ECS) for 0.2 seconds via corneal electrodes.

Some results are limits rather than exact numbers.

In turn, `CC(=O)N1CCC(=C2c3cc4ccccc4cc3CCc3cccnc32)CC1` returned an inhibition at 5 µM in series [1] of 35%.
With `CC(=O)N1CCC(=C2c3ccc(Cl)cc3C=Cc3cccnc32)CC1`, in series [1], the IC50 came out at 0.5 µM.
In series [1] (dose .12 micromoles), `CC(=O)N1CCC(=C2c3ccc(Cl)cc3CCc3cc(C)cnc32)CC1` yielded an inhibition at 0.12 µM of 44%.
Molecule `CC(=O)N1CCC(=C2c3ccccc3CCc3ccc[n+]([O-])c32)CC1` displayed an IC50 in series [1] of 1.5 µM.
In series [1], `CC(=O)N1CCC(=C2c3ccc(Cl)cc3CCc3ccc[n+](C)c32)CC1` gave an inhibition at 5 µM of 58%.
In series [1] (dose 2.5 micromoles), `CC(=O)N1CCC(=C2c3cc(F)c(F)cc3CCc3ccc[n+]([O-])c32)CC1` showed an inhibition at 2.5 µM of 53%.
In series [1], `CC(=O)N1CCC(=C2c3ccc(Cl)cc3CC(O)c3cccnc32)CC1` (stereo not drawn) [5-hydroxy-8-chloro-11-(1-acetyl-4-piperidylidene)-6,11-dihydro-5H-benzo[5,6]cyclohepta[1,2-b]pyridine] displayed an IC50 of 5 µM.
In series [1], `CC(=O)N1CCC(=C2c3ccc(Cl)cc3CC(C)c3cccnc32)CC1` (stereo not drawn) [5-methyl-8-chloro-11-[1-acetyl-4-piperidylidene]-5H-benzo[5,6]cyclohepta[1,2-b]pyridine] gave an IC50 of 1 µM.
In the case of `COCC(=O)N1CCN(C2c3ccc(Cl)cc3CCc3cccnc32)CC1` (stereo not drawn) [8-chloro-11-(1-methoxyacetyl-4-piperazinyl)-6,11-dihydro-5H-benzo[5,6]cyclohepta[1,2-b]pyridine], in series [1], inhibition was half-maximal at 5 µM (IC50).
With `CCCC(=O)N1CCC(=C2c3ccc(Cl)cc3CCc3cccnc32)CC1` [8-chloro-11-(1-n-butyryl-4-piperidylidene)-6,11-dihydro-5H-benzo[5,6]cyclohepta[1,2-b]pyridine], in series [2], the responders at 1 mg/kg came to 40%. The responders at 5 mg/kg in series [2] was determined as 100%. Further, the 50% effective dose (ED50) in series [3] and in series [4] was greater than 320 mg/kg in each case.
`CC(=O)N1CCC(=C2c3ccc(Cl)cc3CC(=O)c3cccnc32)CC1` [8-chloro-11-[1-acetyl-4-piperidylidene]-6,11-dihydro-5H-benzo[5,6]cyclohepta[1,2-b]pyridin-5-one] gave an IC50 in series [1] of 1.2 µM.
In the case of `CCC(=O)N1CCC(=C2c3ccc(Cl)cc3CCc3cccnc32)CC1` [R = CH2 CH2, R^3 = Cl, R^4 = H, Z = O, 8-chloro-11-(1-propionyl-4-piperidylidene)-6,11-dihydro-5H-benzo[5,6]cyclohepta[1,2-b]pyridine], 3 µM produced 60% inhibition in series [1] (dose 3 micromoles). The responders at 1 mg/kg in series [2] worked out at 40%. Further, the responders at 5 mg/kg in series [2] was 80%. The ED50 in series [3] and in series [4] was greater than 320 mg/kg throughout.
`COCC(=O)N1CCC(=C2c3ccc(Cl)cc3CCc3cccnc32)CC1` [R = CH2 OCH3, R^3 = Cl, R^4 = H, Z = O, 8-chloro-11-(1-methoxyacetyl-4-piperidylidene)-6,11-dihydro-5H-benzo[5,6]cyclohepta[1,2-b]pyridine] came in with an IC50 in series [1] of 6 µM. Further, in series [2], the responders at 1 mg/kg stood at 80% and the responders at 5 mg/kg came out at 80%. In series [3], this molecule showed an ED50 greater than 320 mg/kg. Moreover, the ED50 in series [4] was greater than 320 mg/kg.
Take `COCC(=O)N1CCC(=C2c3ccc(F)cc3CCc3cccnc32)CC1` [R = CH2 OCH3, R^3 = F, R^4 = H, Z = O, 8-fluoro-11-(1-methoxyacetyl-4-piperidylidene)-6,11-dihydro-5H-benzo[5,6]cyclohepta[1,2-b]pyridine]: 10 µM produced 9% inhibition in series [1]. Moreover, the responders at 1 mg/kg in series [2] worked out at 100%. Also, in series [2], the responders at 5 mg/kg is 100%. In addition, the ED50 in series [3] and in series [4] was less than 320 mg/kg throughout.
As for `CCOC(=O)N1CCC(=C2c3ccc(Cl)cc3CCc3cccnc32)CC1` [R = OC2 H5, R^3 = Cl, R4 = H, Z = O, 8-chloro-6,11-dihydro-11-(1-ethoxycarbonyl-4-piperidylidene)-5H-benzo[5,6]cyclohepta[1,2-b]pyridine, reference compound], the ED50 in series [2] (oral, probit analysis, read-out: Antihistaminic Activity, ED50) came to 0.19 mg/kg.
As to `CCSC(=O)N1CCC(=C2c3ccc(Cl)cc3CCc3cccnc32)CC1` [R = SCH2 CH3, R^3 = Cl, R^4 = H, Z = O, 8-chloro-11-[1-thioethoxycarbonyl-4-piperidylidene]-6,11-dihydro-5H-benzo[5,6]cyclohepta[1,2-b]pyridine], the inhibition at 10 µM in series [1] stood at 0%. Further, the responders at 1 mg/kg in series [2] stood at 100%. Moreover, the responders at 5 mg/kg in series [2] came to 80%. The 50% effective dose (ED50) in series [3] and in series [4] was greater than 320 mg/kg in each case.
In series [1], `CC(=O)N1CCC(=C2c3ccc(Br)cc3CCc3cccnc32)CC1` [R^3 = Br, R^4 = H, R = CH3, Z = O, 8-bromo-11-[1-acetyl-4-piperidylidene]-6,11-dihydro-5H-benzo[5,6]cyclohepta[1,2-b]pyridine] returned an IC50 of 1.2 µM.
Turning to `C=CC(=O)N1CCC(=C2c3ccc(Cl)cc3CCc3cccnc32)CC1` [R^3 = Cl, R^4 = H, R = CHCH2, Z = O, 8-chloro-11-[1-acryloyl-4-piperidylidene]-6,11-dihydro-5H-benzo[5,6]cyclohepta[1,2-b]pyridine], in series [1] (dose 25 micromoles), the inhibition at 25 µM came out at 63%.
As to `CNC(=O)N1CCC(=C2c3ccc(Cl)cc3CCc3cccnc32)CC1` [R^3 = Cl, R^4 = H, R = NHCH3, Z = O, 8-chloro-11-(1-methylaminocarbonyl-4-piperidylidene)-6,11-dihydro-5H-benzo[5,6]cyclohepta[1,2-b]pyridine], testing at 50 µM in series [1] (dose 50 micromoles) gave an inhibition of 29%.
As for `CC(=O)N1CCN(C2c3ccc(Cl)cc3CCc3cccnc32)CC1` (stereo not drawn) [R^3 = Cl, X = N, R = CH3, Z = O, R^4 = H, 8-chloro-11-(1-acetyl-4-piperazinyl)-6,11-dihydro-5H-benzo[5,6]cyclohepta[1,2-b]pyridine], at 0.5 µM the inhibition in series [1] (dose .5 micromoles) was 43%.
The molecule `O=CN1CCN(C2c3ccc(Cl)cc3CCc3cccnc32)CC1` (stereo not drawn) [R^3 = Cl, X = N, R = H, Z = O, R^4 = H, 8-chloro-11-(1-formyl-4-piperazinyl)-6,11-dihydro-5H-benzo[5,6]cyclohepta[1,2-b]pyridine] had an IC50 in series [1] of 5 µM.
Same read-out and setting: then `CC(=O)N1CCC(C2c3ccccc3CCc3cccnc32)CC1` (stereo not drawn) [R^3 = H, R^4 = H, R = CH3, Z = O, X = CH, 11-(1-acetyl-4-piperidyl)-6,11-dihydro-5H-benzo[5,6]cyclohepta[1,2-b]pyridine], with 5 µM.
`O=C(c1ccccc1)N1CCC(=C2c3ccc(Cl)cc3CCc3cccnc32)CC1` [Z = O, R = Ph, R^3 = Cl, R^4 = H, 8-chloro-11-(1-benzoyl-4-piperidylidene)-6,11-dihydro-5H-benzo[5,6]cyclohepta[1,2-b]pyridine] came in with an inhibition at 10 µM in series [1] of 9%. In series [2], the responders at 1 mg/kg was determined as 0% and the responders at 5 mg/kg is 100%.
Consider `S=C(c1ccccc1)N1CCC(=C2c3ccc(Cl)cc3CCc3cccnc32)CC1` [Z = S, R = Ph, R^3 = Cl, R^4 = H, 8-chloro-11-(1-thiobenzoyl-4-piperidylidene)-6,11-dihydro-5H-benzo[5,6]cyclohepta[1,2-b]pyridine], for which, in series [2], the responders at 1 mg/kg turned out to be 0% and the responders at 5 mg/kg was found to be 60%. Further, the ED50 in series [3] was greater than 320 mg/kg. Moreover, the ED50 in series [4] was greater than 320 mg/kg.

For orientation: inhibition means how much of the control response was suppressed. Read a high inhibition as a response far below the control. A word on the IC50: it is the concentration that inhibits the measured activity by half. A high value points to lower potency. For orientation: ED50 means the dose at which the effect has come halfway, by size or by number of responders.

For the origin of these results see US5438062A, “Benzo(5,6)cycloheptapyridines, compositions and methods of use” (Schering Corporation, priority 1987, dated 1995).
